Numbers after ± are expanded uncertainties.
CCCCCCn1cc[n+](C)c1.F[B-](F)(F)F [1-hexyl-3-methylimidazolium tetrafluoroborate]
surface tension liquid-gas [mN/m]
Details | Wilhelmy plate method | du Nouy ring method
268.58 K | 39.81 ± 0.2 | 39.79 ± 0.2
273.34 K | 39.52 ± 0.2 | 39.54 ± 0.2
277.72 K | 39.29 ± 0.2 | –
277.76 K | – | 39.32 ± 0.2
282.51 K | 39.04 ± 0.2 | –
282.71 K | – | 39.21 ± 0.2
288.13 K | 38.71 ± 0.19 | 38.75 ± 0.19
292.87 K | 38.47 ± 0.19 | –
292.93 K | – | 38.49 ± 0.19
298.07 K | 38.2 ± 0.19 | 38.21 ± 0.19
303.15 K | 37.88 ± 0.19 | –
303.19 K | – | 37.85 ± 0.19
308.22 K | – | 37.66 ± 0.19
308.23 K | 37.64 ± 0.19 | –
313.35 K | 37.32 ± 0.19 | –
313.48 K | – | 37.33 ± 0.19
318.39 K | – | 37.08 ± 0.19
318.48 K | 37.08 ± 0.19 | –
323.32 K | – | 36.83 ± 0.18
323.34 K | 36.81 ± 0.18 | –
328.17 K | 36.53 ± 0.18 | –
328.2 K | – | 36.54 ± 0.18
333.22 K | 36.25 ± 0.18 | –
333.24 K | – | 36.21 ± 0.18
337.92 K | 36.01 ± 0.18 | –
337.97 K | – | 36 ± 0.18
343.79 K | 35.68 ± 0.18 | 35.7 ± 0.18
348.5 K | 35.44 ± 0.18 | –
348.54 K | – | 35.39 ± 0.18
356.17 K | 34.99 ± 0.18 | –
356.18 K | – | 35 ± 0.18

CCn1cc[n+](C)c1.F[B-](F)(F)F [1-ethyl-3-methylimidazolium tetrafluoroborate]
surface tension liquid-gas [mN/m]
Details | Wilhelmy plate method | du Nouy ring method
288.05 K | – | 54.61 ± 0.06
288.06 K | 54.61 ± 0.06 | –
292.92 K | 54.28 ± 0.06 | –
292.93 K | – | 54.55 ± 0.06
298.1 K | 53.97 ± 0.06 | –
298.12 K | – | 54.01 ± 0.05
303.12 K | 53.65 ± 0.05 | –
303.13 K | – | 53.96 ± 0.06
308.27 K | 53.34 ± 0.05 | 53.77 ± 0.05
313.33 K | 52.98 ± 0.05 | –
313.43 K | – | 53.05 ± 0.05
318.3 K | 52.7 ± 0.05 | –
318.35 K | – | 52.86 ± 0.05
323.5 K | 52.39 ± 0.05 | –
323.53 K | – | 52.54 ± 0.05
328.4 K | 52.05 ± 0.05 | –
328.54 K | – | 52.18 ± 0.05
333.32 K | 51.74 ± 0.05 | –
333.48 K | – | 51.87 ± 0.05
338.38 K | – | 51.48 ± 0.05
338.39 K | 51.4 ± 0.05 | –
343.18 K | 51.11 ± 0.05 | –
343.32 K | – | 51.11 ± 0.05
348.7 K | 50.76 ± 0.05 | –
348.78 K | – | 50.74 ± 0.06
355.91 K | – | 50.26 ± 0.05
355.99 K | 50.27 ± 0.05 | –

CCn1cc[n+](C)c1.O=S(=O)([O-])C(F)(F)F [1-ethyl-3-methylimidazolium trifluoromethanesulfonate]
Details | surface tension liquid-gas [mN/m]
268.29 K, Wilhelmy plate method | 41.39 ± 0.21
268.36 K, du Nouy ring method | 41.4 ± 0.21
272.08 K, Wilhelmy plate method | 41.28 ± 0.21
272.13 K, du Nouy ring method | 41.3 ± 0.21
276.54 K, Wilhelmy plate method | 41.1 ± 0.21
276.65 K, du Nouy ring method | 41.16 ± 0.21
281 K, Wilhelmy plate method | 40.96 ± 0.2
281.05 K, du Nouy ring method | 41.1 ± 0.21
287.58 K, du Nouy ring method | 40.79 ± 0.2
287.63 K, Wilhelmy plate method | 40.69 ± 0.2
293 K, du Nouy ring method | 40.74 ± 0.2
293.01 K, Wilhelmy plate method | 40.52 ± 0.2
298.01 K, Wilhelmy plate method | 40.43 ± 0.2
298.04 K, du Nouy ring method | 40.39 ± 0.2
303.18 K, du Nouy ring method | 40.18 ± 0.2
303.2 K, Wilhelmy plate method | 40.24 ± 0.2
308.2 K, Wilhelmy plate method | 40.07 ± 0.2
308.31 K, du Nouy ring method | 40.01 ± 0.2
313.27 K, Wilhelmy plate method | 39.93 ± 0.2
313.31 K, du Nouy ring method | 39.75 ± 0.2
318.36 K, Wilhelmy plate method | 39.68 ± 0.2
318.39 K, du Nouy ring method | 39.83 ± 0.2
323.33 K, Wilhelmy plate method | 39.5 ± 0.2
323.38 K, du Nouy ring method | 39.38 ± 0.2
328.2 K, du Nouy ring method | 39.44 ± 0.2
333.07 K, Wilhelmy plate method | 39.16 ± 0.2
333.12 K, du Nouy ring method | 39.24 ± 0.2
338.1 K, Wilhelmy plate method | 39.03 ± 0.2
338.15 K, du Nouy ring method | 39.02 ± 0.2
343.14 K, Wilhelmy plate method | 38.85 ± 0.2
343.21 K, du Nouy ring method | 38.85 ± 0.19
348.38 K, Wilhelmy plate method | 38.65 ± 0.19
348.53 K, du Nouy ring method | 38.62 ± 0.19
356.09 K, Wilhelmy plate method | 38.37 ± 0.19
356.28 K, du Nouy ring method | 38.31 ± 0.19

From the NIST ThermoML archive (doi:10.1016/j.fluid.2011.01.027)
